Reference: US9969752B2, “Inhibitors of HIF prolyl hydroxylase” (MERCK SHARP & DOHME CORP., priority 2014, dated 2018)

target: T1, Human HIF-PHD2 (Homo sapiens, UniProt Q9GZT9); experiment: Inhibition of the hydroxylation of a HIF peptide by PHD2 (time resolved fluorescence, 384-well); assay type: biochemical; details: FLAG-tagged full length PHD2; 0.2 μM 2-oxoglutarate, 0.5 μM HIF-1α peptide; 45 minutes at room temperature; read-out: Human HIF-PHD2 IC50
T1 construct: FLAG-tagged full length PHD2 expressed in and purified from baculovirus-infected Sf9 cells; FLAG; made in house; host or cells: baculovirus-infected Sf9 cells
T1 sequence (Q9GZT9 whole entry): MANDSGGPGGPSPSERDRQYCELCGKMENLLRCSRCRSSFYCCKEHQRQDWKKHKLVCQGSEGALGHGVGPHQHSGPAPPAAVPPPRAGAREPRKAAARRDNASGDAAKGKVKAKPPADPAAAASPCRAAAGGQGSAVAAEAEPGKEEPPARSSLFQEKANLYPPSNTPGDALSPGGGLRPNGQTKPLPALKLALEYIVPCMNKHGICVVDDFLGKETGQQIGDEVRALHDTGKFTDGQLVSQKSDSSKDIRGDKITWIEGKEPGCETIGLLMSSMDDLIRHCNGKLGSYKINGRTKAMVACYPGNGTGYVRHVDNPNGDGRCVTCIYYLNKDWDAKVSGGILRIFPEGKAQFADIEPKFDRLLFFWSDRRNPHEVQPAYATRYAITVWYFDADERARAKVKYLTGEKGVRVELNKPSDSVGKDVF
Experimental: To each well of a 384-well plate, 1 μL of test compounds in DMSO (final concentration ranging from 0.3 nM to 10 uM) were added into 20 μl of assay buffer (50 mM Tris pH 7.4/0.01% Tween-20/0.1 mg/ml bovine serum albumin/10 μM ferrous sulfate/1 mM sodium ascorbate/20 μg/ml catalase) containing 0.15 μg/ml FLAG-tagged full length PHD2 expressed in and purified from baculovirus-infected Sf9 cells. After a 5 min preincubation at room temperature, the enzymatic reactions were initiated by the addition of 4 μL of substrates {final concentrations of 0.2 μM 2-oxoglutarate and 0.5 μM HIF-1α peptide biotinyl-[…] […] After incubation for 45 minutes at room temperature, the reactions were terminated by the addition of a 25 μL quench/detection mix to a final concentration of 1 mM ortho-phenanthroline, 0.1 mM EDTA, 0.5 nM anti-(His)6 LANCE reagent (Perkin-Elmer Life Sciences), 100 nM AF647-labeled streptavidin (Invitrogen), and 2 μg/ml (His)6-VHL complex {S. Tan Protein Expr. Purif.

In order of rising IC50:
1. N#Cc1ccc2c3c1c(O)c(C(=O)NCC(=O)O)c(=O)n3CC(c1ccc(C(F)(F)F)cc1)O2 (centres unmarked) [Example 13, 2-(8-Cyano-7-hydroxy-5-oxo-2-(4-(trifluoromethyl)phenyl)-3,5-dihydro-2H-[1,4]oxazino[2,3,4-ij]quinoline-6-carboxamido)acetic acid]  1 nM
2. CS(=O)(=O)c1ccc2c(O)c(C(=O)NCC(=O)O)c(=O)n3c2c1OCC3Cc1ccc(C(F)(F)F)cc1 (centres unmarked) [Example 31, 2-(7-Hydroxy-10-(methylsulfonyl)-5-oxo-3-(4-(trifluoromethyl)benzyl)-3,5-dihydro-2H-[1,4]oxazino[2,3,4-ij]quinoline-6-carboxamido)acetic acid]  1 nM
3. N#Cc1ccc2c3c1c(O)c(C(=O)NCC(=O)O)c(=O)n3C(Cc1ccc(C(F)(F)F)cc1)CO2 (centres unmarked) [Example 29, 2-(8-Cyano-7-hydroxy-5-oxo-3-(4-(trifluoromethyl)benzyl)-3,5-dihydro-2H-[1,4]oxazino[2,3,4-ij]quinoline-6-carboxamido)acetic acid]  1.3 nM
4. CS(=O)(=O)c1cc2c3c(c1)c(O)c(C(=O)NCC(=O)O)c(=O)n3C(Cc1ccc(C(F)(F)F)cc1)CO2 (centres unmarked) [Example 6, 2-(7-Hydroxy-9-(methylsulfonyl)-5-oxo-3-(4-(trifluoromethyl)benzyl)-3,5-dihydro-2H-[1,4]oxazino[2,3,4-ij]quinoline-6-carboxamido)acetic acid]  1.7 nM
5. O=C(O)CNC(=O)c1c(O)c2ccc(Br)c3c2n(c1=O)CC(c1ccc(C(F)(F)F)cc1)O3 (centres unmarked) [Example 22, 2-(10-Bromo-7-hydroxy-5-oxo-2-(4-(trifluoromethyl)phenyl)-3,5-dihydro-2H-[1,4]oxazino[2,3,4-ij]quinoline-6-carboxamido)acetic acid]  2.3 nM
6. O=C(O)CNC(=O)c1c(O)c2c(Br)ccc3c2n(c1=O)CC(c1ccc(C(F)(F)F)cc1)O3 (centres unmarked) [Example 11, 2-(8-Bromo-7-hydroxy-5-oxo-2-(4-(trifluoromethyl)phenyl)-3,5-dihydro-2H-[1,4]oxazino[2,3,4-ij]quinoline-6-carboxamido)acetic acid]  2.6 nM
7. N#Cc1cc2c3c(c1)c(O)c(C(=O)NCC(=O)O)c(=O)n3C(Cc1ccc(C(F)(F)F)cc1)CO2 (centres unmarked) [Example 4, 2-(9-Cyano-7-hydroxy-5-oxo-3-(4-(trifluoromethyl)benzyl)-3,5-dihydro-2H-[1,4]oxazino[2,3,4-ij]quinoline-6-carboxamido)acetic acid]  3 nM
8. O=C(O)CNC(=O)c1c(O)c2cc(Br)cc3c2n(c1=O)CC(c1ccc(C(F)(F)F)cc1)O3 (centres unmarked) [Example 16, 2-(9-Bromo-7-hydroxy-5-oxo-2-(4-(trifluoromethyl)phenyl)-3,5-dihydro-2H-[1,4]oxazino[2,3,4-ij]quinoline-6-carboxamido)acetic acid]  4.4 nM
9. Cc1ccc2c(O)c(C(=O)NCC(=O)O)c(=O)n3c2c1OC(c1ccc(C(F)(F)F)cc1)C3 (centres unmarked) [Example 25, 2-(7-Hydroxy-10-methyl-5-oxo-2-(4-(trifluoromethyl)phenyl)-3,5-dihydro-2H-[1,4]oxazino[2,3,4-ij]quinoline-6-carboxamido)acetic acid]  5.4 nM
10. Cc1cc2c3c(c1)c(O)c(C(=O)NCC(=O)O)c(=O)n3CC(c1ccc(C(F)(F)F)cc1)O2 (centres unmarked) [Example 19, 2-(7-Hydroxy-9-methyl-5-oxo-2-(4-(trifluoromethyl)phenyl)-3,5-dihydro-2H-[1,4]oxazino[2,3,4-ij]quinoline-6-carboxamido)acetic acid]  5.6 nM
11. O=C(O)CNC(=O)c1c(O)c2ccc(Br)c3c2n(c1=O)C(Cc1ccc(C(F)(F)F)cc1)CO3 (centres unmarked) [Example 27, 2-(10-Bromo-7-hydroxy-5-oxo-3-(4-(trifluoromethyl)benzyl)-3,5-dihydro-2H-[1,4]oxazino[2,3,4-ij]quinoline-6-carboxamido)acetic acid]  5.7 nM
12. O=C(O)CNC(=O)c1c(O)c2cccc3c2n(c1=O)CC(c1ccc(C(F)(F)F)cc1)O3 (centres unmarked) [Example 10, 2-(7-Hydroxy-5-oxo-2-(4-(trifluoromethyl)phenyl)-3,5-dihydro-2H-[1,4]oxazino[2,3,4-ij]quinoline-6-carboxamido)acetic acid]  6.4 nM
13. O=C(O)CNC(=O)c1c(O)c2cccc3c2n(c1=O)CC(c1ccc(C(F)(F)F)cc1)C3 (centres unmarked) [Example 9, 2-(1-Hydroxy-3-oxo-6-(4-(trifluoromethyl)phenyl)-3,5,6,7-tetrahydropyrido[3,2,1-ij]quinoline-2-carboxamido)acetic acid]  7.2 nM
14. O=C(O)CNC(=O)c1c(O)c2c(Br)ccc3c2n(c1=O)C(Cc1ccc(C(F)(F)F)cc1)CO3 (centres unmarked) [Example 26, 2-(8-bromo-7-hydroxy-5-oxo-3-(4-(trifluoromethyl)benzyl)-3,5-dihydro-2H-[1,4]oxazino[2,3,4-ij]quinoline-6-carboxamido)acetic acid]  8.1 nM
15. N#Cc1ccc(C2Cn3c(=O)c(C(=O)NCC(=O)O)c(O)c4c(OC(F)(F)F)ccc(c43)O2)cc1 (single isomer, unassigned) [Example 88, 2-(2-(4-Cyanophenyl)-7-hydroxy-5-oxo-8-(trifluoromethoxy)-3,5-dihydro-2H-[1,4]oxazino[2,3,4-ij]quinoline-6-carboxamido)acetic acid]  8.5 nM
16. O=C(O)CNC(=O)c1c(O)c2c(OC(F)(F)F)ccc3c2n(c1=O)CC(c1ccc(C(F)(F)F)cc1)O3 (single isomer, unassigned) [Example 86, 2-(7-Hydroxy-5-oxo-8-(trifluoromethoxy)-2-(4-(trifluoromethyl)phenyl)-3,5-dihydro-2H-[1,4]oxazino[2,3,4-ij]quinoline-6-carboxamido)acetic acid]  14 nM
17. O=C(O)CNC(=O)c1c(O)c2cccc3c2n(c1=O)C(c1ccccc1)CC3 (single isomer, unassigned) [Example 130, 2-(1-Hydroxy-3-oxo-5-phenyl-3,5,6,7-tetrahydropyrido[3,2,1-ij]quinoline-2-carboxamido)acetic acid]  18 nM
18. O=C(O)CNC(=O)c1c(O)c2cc(Br)cc3c2n(c1=O)C(Cc1ccc(C(F)(F)F)cc1)CO3 (centres unmarked) [Example 5, 2-(9-Bromo-7-hydroxy-5-oxo-3-(4-(trifluoromethyl)benzyl)-3,5-dihydro-2H-[1,4]oxazino[2,3,4-ij]quinoline-6-carboxamido)acetic acid]  18 nM
19. CS(=O)(=O)c1ccc2c3c1c(O)c(C(=O)NCC(=O)O)c(=O)n3CC(c1ccc(C(F)(F)F)cc1)O2 (centres unmarked) [Example 12, 2-(7-Hydroxy-8-(methylsulfonyl)-5-oxo-2-(4-(trifluoromethyl)phenyl)-3,5-dihydro-2H-[1,4]oxazino[2,3,4-ij]quinoline-6-carboxamido)acetic acid]  19 nM
20. O=C(O)CNC(=O)c1c(O)c2cccc3c2n(c1=O)C(Cc1ccc(C(F)(F)F)cc1)CO3 (centres unmarked) [Example 3, 2-(7-Hydroxy-5-oxo-3-(4-(trifluoromethyl)benzyl)-3,5-dihydro-2H-[1,4]oxazino[2,3,4-ij]quinoline-6-carboxamido)acetic acid]  21 nM
21. CC(O)(CO)c1cc2c3c(c1)c(O)c(C(=O)NCC(=O)O)c(=O)n3C(Cc1ccc(C(F)(F)F)cc1)CO2 (centres unmarked) [Example 8, 2-(9-(1,2-Dihydroxypropan-2-yl)-7-hydroxy-5-oxo-3-(4-(trifluoromethyl)benzyl)-3,5-dihydro-2H-[1,4]oxazino[2,3,4-ij]quinoline-6-carboxamido)acetic acid]  30 nM
22. Cc1cc2c3c(c1)c(O)c(C(=O)NCC(=O)O)c(=O)n3C(Cc1ccc(C(F)(F)F)cc1)CO2 (centres unmarked) [Example 7, 2-(7-hydroxy-9-methyl-5-oxo-3-(4-(trifluoromethyl)benzyl)-3,5-dihydro-2H-[1,4]oxazino[2,3,4-ij]quinoline-6-carboxamido)acetic acid]  37 nM
23. Cc1ccc2c3c1c(O)c(C(=O)NCC(=O)O)c(=O)n3C(Cc1ccc(C(F)(F)F)cc1)CO2 (centres unmarked) [Example 30, 2-(7-Hydroxy-8-methyl-5-oxo-3-(4-(trifluoromethyl)benzyl)-3,5-dihydro-2H-[1,4]oxazino[2,3,4-ij]quinoline-6-carboxamido)acetic acid]  39 nM
24. CS(=O)(=O)c1ccc2c3c1c(O)c(C(=O)NCC(=O)O)c(=O)n3C(Cc1ccc(C(F)(F)F)cc1)CO2 (centres unmarked) [Example 28, 2-(7-Hydroxy-8-(methylsulfonyl)-5-oxo-3-(4-(trifluoromethyl)benzyl)-3,5-dihydro-2H-[1,4]oxazino[2,3,4-ij]quinoline-6-carboxamido)acetic acid]  42 nM

same assay, conditions: FLAG-tagged full length PHD2; 0.2 μM 2-oxoglutarate, 0.5 μM HIF-1α peptide; 45 minutes at room temperature; read-out: MS m/z (M + 1)+ and human HIF-PHD2 IC50

In order of falling IC50:
1. N#Cc1ccc(C2Cn3c(=O)c(C(=O)NCC(=O)O)c(O)c4c(OC(F)(F)F)ccc(c43)O2)cc1 (single isomer, unassigned) [Example 89, 2-(2-(4-cyanophenyl)-7-hydroxy-5-oxo-8-(trifluoromethoxy)-3,5-dihydro-2H-[1,4]oxazino[2,3,4-ij]quinoline-6-carboxamido)acetic acid]  34 nM
2. O=C(O)CNC(=O)c1c(O)c2c(OC(F)(F)F)ccc3c2n(c1=O)CC(c1ccc(C(F)(F)F)cc1)O3 (single isomer, unassigned) [Example 87, 2-(7-hydroxy-5-oxo-8-(trifluoromethoxy)-2-(4-(trifluoromethyl)phenyl)-3,5-dihydro-2H-[1,4]oxazino[2,3,4-ij]quinoline-6-carboxamido)acetic acid]  17 nM
